Values joined by “and” are separate entries in the source; they are usually repeats but may differ in a detail not shown here. Equal values may be shown once. Read-outs that look alike come from different tables or passages of the source.
What was measured:
wt-HVGH TtIleRS2 = target: T1, wt-HVGH TtIleRS2 (Thermus thermophilus, UniProt P56690); experiment: ATP-PPi exchange assay, mupirocin inhibition of amino acid activation; type: biochemical
T1 construct: hexa-histidine tag (pET28b(+)) (N); made in house; host or cells: E. coli Rosetta2 (DE3)
T1 sequence (P56690 1-1043): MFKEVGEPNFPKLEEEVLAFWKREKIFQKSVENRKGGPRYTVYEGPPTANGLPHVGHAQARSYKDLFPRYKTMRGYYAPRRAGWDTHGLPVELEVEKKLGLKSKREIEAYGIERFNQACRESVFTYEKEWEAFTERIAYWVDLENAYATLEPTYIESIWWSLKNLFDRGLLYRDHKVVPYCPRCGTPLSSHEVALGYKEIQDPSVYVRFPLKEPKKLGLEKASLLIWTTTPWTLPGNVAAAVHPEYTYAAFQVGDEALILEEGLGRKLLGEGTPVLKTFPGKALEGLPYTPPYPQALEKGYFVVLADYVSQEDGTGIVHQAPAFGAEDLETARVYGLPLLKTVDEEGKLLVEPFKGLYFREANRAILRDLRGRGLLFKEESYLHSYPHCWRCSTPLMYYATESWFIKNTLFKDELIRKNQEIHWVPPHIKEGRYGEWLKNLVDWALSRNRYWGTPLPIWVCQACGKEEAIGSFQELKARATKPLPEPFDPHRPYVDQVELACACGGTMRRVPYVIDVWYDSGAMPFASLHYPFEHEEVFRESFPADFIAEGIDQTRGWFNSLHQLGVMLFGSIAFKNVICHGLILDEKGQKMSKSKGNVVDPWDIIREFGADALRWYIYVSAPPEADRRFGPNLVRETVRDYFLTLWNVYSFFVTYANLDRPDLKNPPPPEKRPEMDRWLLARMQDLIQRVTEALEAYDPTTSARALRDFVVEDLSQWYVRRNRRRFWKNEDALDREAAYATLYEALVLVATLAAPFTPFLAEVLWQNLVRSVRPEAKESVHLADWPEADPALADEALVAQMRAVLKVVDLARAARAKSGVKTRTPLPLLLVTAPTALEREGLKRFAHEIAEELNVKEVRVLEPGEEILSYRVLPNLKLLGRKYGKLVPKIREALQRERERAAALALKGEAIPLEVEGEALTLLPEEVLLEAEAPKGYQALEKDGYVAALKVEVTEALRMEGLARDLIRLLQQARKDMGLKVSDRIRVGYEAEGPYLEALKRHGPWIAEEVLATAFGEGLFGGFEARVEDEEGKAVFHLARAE
Procedure: L-Ile and ATP concentrations ranged from 1/10 KM to 10 KM values. When measuring the KI towards one of the substrates, the other was held in saturation (concentrations at least 10 KM). The aliquots of the reaction mixture (1–2.5 μl) were quenched in 2 volumes of 500 mM NaOAc pH = 4.5, 0.1% SDS, and formed ^32P-ATP was separated from the remaining ^32P-PPi by thin-layer chromatography on Polygram CEL 300 PEI UV254 TLC plates (Macherey-Nagel, cat: 801063) using 750 mM KH2PO4 pH=3.5, 4 M urea buffer. Visualization and quantification of the signals was performed using a Typhoon Phosphoimager 5 (General Electric) and accompanying ImageQuant™ TL software (SV: 10.2). The kinetic constants were determined using a global fit option of the competitive inhibition model of GraphPad Prism 6 software (SV: 6.01). All experiments were performed in triplicates. The kcat was determined by dividing the maximal velocity, VM, with the used enzyme concentration. […]
variable substrate (ATP or Ile) was varied in the range of 0.1 KM to 10 KM. The other substrate (Ile or ATP) was kept in excess at 5 to 10 KM. Data were globally fitted to the competitive inhibition model using GraphPad prism 6.01 for Windows software. The values represent the average value ± SD of three independent experiments. Source data are provided as a Source Data file.

wt-HVGH PmIleRS2 = conditions: cited from earlier work
wt-HMGH PmIleRS1 = conditions: amino acid activation step; ATP/PPi exchange assay; Ile varied; slow tight binding inhibitor; read-out: KI (MUP)Ile; cited from earlier work
SgIleRS2 = conditions: non-canonical motif; cited from earlier work
ScIleRS2 = conditions: activation step, absence of tRNA; cited from earlier work
E. coli IleRS1 = tested on: E. coli IleRS1; parameters: method as in earlier work; conditions: activation step, absence of tRNA; cited from earlier work

C/C(=C\C(=O)OCCCCCCCCC(=O)O)C[C@@H]1OC[C@H](C[C@@H]2O[C@H]2[C@@H](C)[C@H](C)O)[C@@H](O)[C@H]1O [mupirocin]
Ki (wt-HVGH TtIleRS2; KI (MUP)ATP, amino acid activation assay, ATP as variable substrate, average ± SD of three independent experiments): 200 ± 10 nM | Ki (wt-HVGH TtIleRS2; KI (MUP)Ile, amino acid activation step, ATP/PPi exchange assay, Ile varied, ATP saturating, average ± SD of three independent experiments): 200 ± 10 nM | Ki (wt-HVGH TtIleRS2; KI, single replicates, mupirocin inhibition towards Ile, GraphPad Prism output, Repl1-Repl3): 190 nM and 200 nM (3×) | initial velocity vo (wt-HVGH TtIleRS2; c(mupirocin) 0.25 μM, c(ATP) 0.5 mM): 0.00545 mM/min and 0.00625 mM/min and 0.00878 mM/min | initial velocity vo (wt-HVGH TtIleRS2; c(mupirocin) 0.25 μM, c(ATP) 1.0 mM): 0.00989 mM/min and 0.00933 mM/min and 0.0106 mM/min | initial velocity vo (wt-HVGH TtIleRS2; c(mupirocin) 0.25 μM, c(ATP) 2.5 mM): 0.01904 mM/min and 0.0219 mM/min and 0.02129 mM/min | initial velocity vo (wt-HVGH TtIleRS2; c(mupirocin) 0.25 μM, c(ATP) 5.0 mM): 0.03233 mM/min and 0.03269 mM/min and 0.0316 mM/min | initial velocity vo (wt-HVGH TtIleRS2; c(mupirocin) 0.25 μM, c(ATP) 10.0 mM): 0.04434 mM/min and 0.04682 mM/min and 0.04511 mM/min | initial velocity vo (wt-HVGH TtIleRS2; c(mupirocin) 0.25 μM, c(ATP) 15.0 mM): 0.0472 mM/min and 0.05017 mM/min and 0.05086 mM/min | initial velocity vo (wt-HVGH TtIleRS2; c(mupirocin) 0.25 μM, c(Ile) 5.0 μM): 0.00612 mM/min and 0.00672 mM/min and 0.00733 mM/min | initial velocity vo (wt-HVGH TtIleRS2; c(mupirocin) 0.25 μM, c(Ile) 15.0 μM): 0.0169 mM/min and 0.01596 mM/min | initial velocity vo (wt-HVGH TtIleRS2; c(mupirocin) 0.5 μM, c(ATP) 0.5 mM): 0.00322 mM/min and 0.00373 mM/min and 0.00334 mM/min | initial velocity vo (wt-HVGH TtIleRS2; c(mupirocin) 0.5 μM, c(ATP) 1.0 mM): 0.00754 mM/min and 0.00751 mM/min and 0.00747 mM/min | initial velocity vo (wt-HVGH TtIleRS2; c(mupirocin) 0.5 μM, c(ATP) 2.5 mM): 0.01415 mM/min and 0.01653 mM/min and 0.01647 mM/min | initial velocity vo (wt-HVGH TtIleRS2; c(mupirocin) 0.5 μM, c(ATP) 5.0 mM): 0.02341 mM/min and 0.024 mM/min and 0.02727 mM/min | initial velocity vo (wt-HVGH TtIleRS2; c(mupirocin) 0.5 μM, c(ATP) 10.0 mM): 0.03666 mM/min and 0.03855 mM/min and 0.03894 mM/min | initial velocity vo (wt-HVGH TtIleRS2; c(mupirocin) 0.5 μM, c(ATP) 15.0 mM): 0.04188 mM/min and 0.04379 mM/min and 0.0434 mM/min | initial velocity vo (wt-HVGH TtIleRS2; c(mupirocin) 0.5 μM, c(Ile) 5.0 μM): 0.00349 mM/min and 0.00358 mM/min and 0.00422 mM/min | initial velocity vo (wt-HVGH TtIleRS2; c(mupirocin) 0.5 μM, c(Ile) 15.0 μM): 0.01037 mM/min and 0.01135 mM/min and 0.01134 mM/min | initial velocity vo (wt-HVGH TtIleRS2; c(mupirocin) 1.0 μM, c(ATP) 1.0 mM): 0.00403 mM/min and 0.00377 mM/min and 0.00474 mM/min | initial velocity vo (wt-HVGH TtIleRS2; c(mupirocin) 1.0 μM, c(ATP) 2.5 mM): 0.00961 mM/min and 0.01146 mM/min and 0.01193 mM/min | initial velocity vo (wt-HVGH TtIleRS2; c(mupirocin) 1.0 μM, c(ATP) 5.0 mM): 0.01986 mM/min and 0.02034 mM/min and 0.01615 mM/min | initial velocity vo (wt-HVGH TtIleRS2; c(mupirocin) 1.0 μM, c(ATP) 10.0 mM): 0.02901 mM/min and 0.02831 mM/min and 0.02535 mM/min | initial velocity vo (wt-HVGH TtIleRS2; c(mupirocin) 1.0 μM, c(ATP) 15.0 mM): 0.03565 mM/min and 0.03315 mM/min and 0.03301 mM/min | initial velocity vo (wt-HVGH TtIleRS2; c(mupirocin) 1.0 μM, c(Ile) 5.0 μM): 0.0018 mM/min and 0.00161 mM/min and 0.00213 mM/min | initial velocity vo (wt-HVGH TtIleRS2; c(mupirocin) 1.0 μM, c(Ile) 15.0 μM): 0.00627 mM/min and 0.00604 mM/min and 0.00608 mM/min | initial velocity vo (wt-HVGH TtIleRS2; c(mupirocin) 1.0 μM, c(Ile) 50.0 μM): 0.01613 mM/min and 0.01634 mM/min and 0.01627 mM/min | initial velocity vo (wt-HVGH TtIleRS2; c(mupirocin) 2.5 μM, c(ATP) 2.5 mM): 0.00405 mM/min and 0.00296 mM/min and 0.00525 mM/min | initial velocity vo (wt-HVGH TtIleRS2; c(mupirocin) 2.5 μM, c(ATP) 5.0 mM): 0.00797 mM/min and 0.00918 mM/min and 0.01147 mM/min | initial velocity vo (wt-HVGH TtIleRS2; c(mupirocin) 2.5 μM, c(ATP) 10.0 mM): 0.01533 mM/min and 0.01708 mM/min and 0.0168 mM/min | initial velocity vo (wt-HVGH TtIleRS2; c(mupirocin) 2.5 μM, c(ATP) 15.0 mM): 0.02441 mM/min and 0.0241 mM/min and 0.02037 mM/min | initial velocity vo (wt-HVGH TtIleRS2; c(mupirocin) 5.0 μM, c(ATP) 2.5 mM): 0.00309 mM/min and 0.0024 mM/min and 0.0026 mM/min | initial velocity vo (wt-HVGH TtIleRS2; c(mupirocin) 5.0 μM, c(ATP) 5.0 mM): 0.00527 mM/min and 0.00709 mM/min and 0.00659 mM/min | initial velocity vo (wt-HVGH TtIleRS2; c(mupirocin) 5.0 μM, c(ATP) 10.0 mM): 0.01002 mM/min and 0.00944 mM/min and 0.01333 mM/min | initial velocity vo (wt-HVGH TtIleRS2; c(mupirocin) 5.0 μM, c(ATP) 15.0 mM): 0.01409 mM/min and 0.01329 mM/min | initial velocity vo (wt-HVGH TtIleRS2; c(mupirocin) 5.0 μM, c(Ile) 5.0 μM): 0.00137 mM/min and 0.00102 mM/min and 0.00071 mM/min | initial velocity vo (wt-HVGH TtIleRS2; c(mupirocin) 5.0 μM, c(Ile) 15.0 μM): 0.00213 mM/min and 0.00316 mM/min and 0.00307 mM/min | Ki (wt-HVGH PmIleRS2; amino acid activation step, ATP/PPi exchange assay, Ile varied, read-out: KI (MUP)Ile): 1080 ± 60 nM | Ki (wt-HVGH PmIleRS2; mupirocin inhibition towards Ile, GraphPad Prism output, Repl1-Repl3, Table 1 footnote b gives this enzyme's values as from ref 21, read-out: KI, single replicates): 1040 nM and 990 nM and 1180 nM | Ki (wt-HMGH PmIleRS1): 0.29 ± 0.02 nM | Ki for mupirocin (SgIleRS2): mM range | Ki (ScIleRS2): 8600 nM | Ki (E. coli IleRS1): 6 nM

Source: publication PMC10485003, “Antibiotic hyper-resistance in a class I aminoacyl-tRNA synthetase with altered active site signature motif” (Nature Communications, 2023)
